According to PubChem BioAssay (NCI):
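Test compounds were applied to cells in 96-well plates for 48 hours at 5 doses. Abbreviation: GI50, concentration required for 50% inhibition of growth. TGI: concentration producing complete growth inhibition.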

Assays:
Test in all cases: inhibition of tumour cell growth, NCI panel, 48 h
[1] = tested on: COLO 205 colon
[2] = tested on: K-562 leukemia
[3] = tested on: MALME-3M melanoma
[4] = tested on: RPMI-8226 leukemia
[5] = tested on: TK-10 renal
[6] = tested on: SK-OV-3 ovarian
[7] = tested on: OVCAR-8 ovarian
[8] = tested on: SN12C renal
[9] = tested on: EKVX NSCLC
[10] = tested on: SF-268 CNS

Structure (SMILES)	TGI [1]	TGI [2]	TGI [3]	TGI [4]	TGI [5]	TGI [6]	TGI [7]	TGI [8]	TGI [9]	TGI [10]	GI50 [1]	GI50 [2]	GI50 [3]	GI50 [4]	GI50 [5]	GI50 [6]	GI50 [8]	GI50 [9]	GI50 [10]
Cc1ncn(-c2ccccc2O)c1C	> 100 µM	> 100 µM	> 100 µM	> 100 µM	> 100 µM	> 100 µM	> 100 µM	> 100 µM	> 100 µM	> 100 µM									
NS(=O)(=O)c1ccc(NC(=O)N/N=C/c2ccccc2[N+](=O)[O-])cc1	> 100 µM	> 100 µM	> 100 µM	> 100 µM	> 100 µM	> 100 µM	> 100 µM	> 100 µM	> 100 µM	> 100 µM									
COC1OC2COC1(OCc1ccccc1)C1OC(C)(C)OC21 (stereo unspecified)	> 100 µM	> 100 µM	> 100 µM	> 100 µM	> 100 µM	> 100 µM	> 100 µM	> 100 µM	> 100 µM	> 100 µM									
Nc1ncnc2c1ncn2[C@H]1C=C[C@@H](NO)C1	> 100 µM	> 100 µM	> 100 µM	> 100 µM	> 100 µM	> 100 µM	> 100 µM	> 100 µM	> 100 µM	> 100 µM									
CC1C(C)(C)C23CC12C1(OCCO1)C3Br (stereo unspecified)	> 100 µM	> 100 µM	> 100 µM	> 100 µM	> 100 µM	> 100 µM	> 100 µM	> 100 µM	> 100 µM	> 100 µM									
S=C(NCc1ccccc1)Nc1sc(=NCc2ccccc2)nc2sc3c(c12)CCN(N1CCc2c(sc4nc(=NCc5ccccc5)sc(NC(=S)NCc5ccccc5)c24)C1)C3	> 100 µM	> 100 µM	> 100 µM	> 100 µM	> 90.3 µM	99.6 µM	> 100 µM	> 52.8 µM	> 64.1 µM	> 100 µM									
Cc1ccc2c(c1)nc1n2C(c2c(F)cccc2F)SC1 (stereo unspecified)	> 100 µM	> 100 µM	93.3 µM	> 100 µM	> 100 µM	> 100 µM	> 100 µM	> 100 µM	> 100 µM	> 100 µM									
FC1(F)ON2CCc3ccccc3C2[C@H]1c1ccccc1 (stereo partly specified)	> 100 µM	> 100 µM	88.8 µM	> 100 µM	> 100 µM	> 100 µM	> 100 µM	> 100 µM	> 100 µM	> 100 µM	> 100 µM	> 100 µM	14.5 µM	> 100 µM	> 100 µM	> 100 µM	> 100 µM	> 100 µM	> 100 µM
C#C[C@]1(O)CC[C@H]2[C@@H]3CCC4=C/C(=N\OCCN5CCCCC5)CC[C@]4(C)[C@H]3CC[C@@]21C	7.43 µM	8.27 µM	21.6 µM	15.3 µM	22.3 µM	31.2 µM	21.2 µM	19.7 µM	19.9 µM	21.7 µM									
O=C(OC1=CCN(Br)C1=O)C1=C(O)C(=O)N(Br)C1	54.4 µM	> 100 µM	> 100 µM	> 100 µM	> 100 µM	71.2 µM	> 100 µM	31 µM	77.8 µM	67.3 µM									
Cc1ccc2nc3ccccc3c(C3C4C(=O)N(c5ccc(F)cc5)C(=O)C4ON3C(C(N)=O)c3ccccc3)c2c1 (stereo unspecified)	35.7 µM	> 100 µM	80.7 µM	77.6 µM	> 100 µM	> 100 µM	> 100 µM	> 100 µM	> 100 µM	> 100 µM									
CCCCSC1=N/C(=C\c2ccccc2O)C(=O)N1	> 100 µM	> 100 µM	> 100 µM	> 100 µM	> 100 µM	> 100 µM	> 100 µM	> 100 µM	> 100 µM	> 100 µM									
C[C@H](Nc1nc(N)c(N=O)c(=O)n1C)C(=O)O	> 10 µM	> 10 µM	> 10 µM	> 10 µM	> 10 µM	> 10 µM	> 10 µM	> 10 µM	> 10 µM	> 10 µM									
COc1ccc2[nH]cc(CCNC(=O)[C@H](Cc3ccc(O)cc3)NC(=O)[C@@H](NCC(F)(F)F)C(C)C)c2c1	> 100 µM	> 100 µM	> 100 µM	> 100 µM	> 100 µM	> 100 µM	> 100 µM	> 100 µM	> 100 µM										
S=P1(Sc2ccccc2)Oc2ccc3ccccc3c2-c2c(ccc3ccccc23)O1	> 100 µM	> 100 µM	> 100 µM	> 100 µM		> 100 µM	> 100 µM	> 100 µM	> 100 µM	> 100 µM									
CC(C)(C)c1ccc2c(c1)OP1(Oc3c(Cl)cc(Cl)c4cccnc34)(O2)Oc2ccc(C(C)(C)C)cc2O1	31.3 µM	> 31.6 µM	24.9 µM	19 µM		16.5 µM	45.8 µM	30.8 µM	> 35.7 µM	24.7 µM									
